The record followed here is PubChem BioAssay (NCI).

Each structure is given as a SMILES string. Several values for one entry are separate records, joined by “and”; a condition that tells them apart may be missing. Identical values can stand only once.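 Values below derive from 48-hour exposures of cells grown in 96-well plates, with endpoints linearly interpolated between the two concentrations bracketing the appropriate inhibition level. GI50: concentration for 50% inhibition of growth. TGI denotes the concentration required for complete inhibition of growth.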 Bounds are passed on as bounds.

Test systems include OVCAR-3 ovarian; NCI-H460 lung; NCI-H23 lung; OVCAR-8 ovarian; NCI-H226 lung; A549 NSCLC; IGROV1 ovarian; RPMI-8226 leukemia; OVCAR-4 ovarian; SK-OV-3 ovarian.
Common to all, as to assay: inhibition of tumour cell growth, NCI panel, 48 h

As to `CCN1CCCCCCCCCC(=N/O)/C(=N\O)C1`, the TGI in the assay with OVCAR-3 ovarian, in the assay on NCI-H460 lung, in the assay on NCI-H23 lung, in the assay on OVCAR-8 ovarian, in the assay with NCI-H226 lung and in the assay on A549 NSCLC was above 100 µM throughout. This compound returned a TGI in the assay with IGROV1 ovarian above 100 µM.

`O=C(CC(O)(C(F)(F)F)C(F)(F)F)c1cccs1`: the TGI in the assay with OVCAR-3 ovarian, in the assay on RPMI-8226 leukemia, with NCI-H23 lung, in the assay with OVCAR-8 ovarian, in the assay with A549 NSCLC and in the assay on OVCAR-4 ovarian was above 10 µM throughout. Besides, the TGI in the assay with IGROV1 ovarian and in the assay on SK-OV-3 ovarian was above 10 µM in each case.

As to `CCN(CC)CCN1C(=O)c2c(c3c4cccc(Cl)c4n(C4OC(CO)C(OC)C(O)C4O)c3c3[nH]c4c(Cl)cccc4c23)C1=O` (stereo not drawn), the GI50 in the assay on RPMI-8226 leukemia is 0.000139 µM and < 0.0268 µM; in the assay with NCI-H460 lung, below 0.0001 µM; in the assay on NCI-H23 lung it was 0.000398 µM and < 0.0329 µM and < 0.01 µM; with OVCAR-8 ovarian, below 0.0001 µM; in the assay with A549 NSCLC, below 0.0001 µM. In addition, the TGI in the assay with RPMI-8226 leukemia was found to be 0.00306 µM.

`COc1ccc(C(=O)C(c2ccc(OC)cc2)C2(O)C(=O)Nc3c(Cl)cc(Cl)cc32)cc1` (stereo not drawn): the TGI with OVCAR-3 ovarian was found to be 49.9 µM; in the assay with RPMI-8226 leukemia, 33.6 µM; in the assay on NCI-H460 lung, 49.9 µM; with NCI-H23 lung, 38.5 µM; in the assay with OVCAR-8 ovarian it was 56.2 µM; in the assay with NCI-H226 lung, 36.5 µM. In addition, the TGI in the assay on A549 NSCLC was determined as 54.9 µM; in the assay with OVCAR-4 ovarian, 20.1 µM; with SK-OV-3 ovarian it was 90.6 µM.

For the compound `O=C(CC(=O)N1N=C(n2ccc3ccccc32)CC1c1ccccc1)Nc1ccccc1Cl` (stereo not drawn), the TGI in the assay with OVCAR-3 ovarian, in the assay with RPMI-8226 leukemia, in the assay on NCI-H460 lung, with NCI-H23 lung, in the assay on OVCAR-8 ovarian and with A549 NSCLC was above 100 µM in each case. For the same compound, the TGI in the assay on OVCAR-4 ovarian, with IGROV1 ovarian and in the assay with SK-OV-3 ovarian was above 100 µM throughout.

For `Nc1ncc(-c2ccc3ncnc(N4CCc5cc(F)c(Cl)cc54)c3c2)cc1C=O`, the GI50 with OVCAR-3 ovarian is 1.66 µM; with NCI-H460 lung it was 0.814 µM; in the assay with NCI-H23 lung it was 2.35 µM; with OVCAR-8 ovarian, 2.54 µM; with NCI-H226 lung, 0.861 µM; with A549 NSCLC, 0.949 µM. The GI50 with OVCAR-4 ovarian is 2.98 µM; with IGROV1 ovarian, 0.314 µM; with SK-OV-3 ovarian, 1.04 µM. Further, the TGI is above 100 µM in the assay with OVCAR-3 ovarian; above 100 µM with NCI-H460 lung; above 100 µM in the assay with NCI-H23 lung; above 100 µM with OVCAR-8 ovarian; above 100 µM in the assay with NCI-H226 lung; 12.5 µM in the assay on A549 NSCLC. For the same compound, the TGI with OVCAR-4 ovarian is above 100 µM; in the assay with IGROV1 ovarian it was 2.39 µM; in the assay with SK-OV-3 ovarian it was 6.42 µM.

On to `Cc1c(Br)c(Br)c2c3c1nc(N1CCNCC1)n3CCC2`, for which the GI50 with OVCAR-3 ovarian is 1.56 µM; in the assay on NCI-H460 lung, 1.7 µM; with NCI-H23 lung, 2.01 µM; with OVCAR-8 ovarian, 2.08 µM; with NCI-H226 lung, 1.95 µM; with A549 NSCLC it was 1.87 µM. Also, the GI50 in the assay with OVCAR-4 ovarian was 2.46 µM; in the assay on IGROV1 ovarian, 1.41 µM; with SK-OV-3 ovarian, 3.59 µM. In addition, the TGI is 3.01 µM in the assay with OVCAR-3 ovarian; 3.22 µM in the assay on NCI-H460 lung; 4.22 µM in the assay with NCI-H23 lung; 5.46 µM in the assay with OVCAR-8 ovarian; 5.31 µM with NCI-H226 lung; 4.01 µM in the assay with A549 NSCLC. In addition, the TGI worked out at 6.1 µM with OVCAR-4 ovarian, 3.12 µM in the assay with IGROV1 ovarian and 13.1 µM in the assay with SK-OV-3 ovarian.

`COc1c(CC(C)=O)c2ccccc2n1C(C)=O`: the TGI with OVCAR-3 ovarian, in the assay on RPMI-8226 leukemia, in the assay on NCI-H460 lung, with NCI-H23 lung, with OVCAR-8 ovarian and in the assay on A549 NSCLC was above 100 µM each time. In addition, the TGI in the assay with OVCAR-4 ovarian, in the assay with IGROV1 ovarian and in the assay with SK-OV-3 ovarian was above 100 µM each time.

Turning to `CN(C)C/C=C/C(=O)Nc1ccc(C(=O)Nc2cccc(Nc3ncc(Cl)c(-c4c[nH]c5ccccc45)n3)c2)cc1`, the GI50 in the assay with OVCAR-3 ovarian is below 0.0122 µM; in the assay with NCI-H460 lung, 0.265 µM; with NCI-H23 lung, 0.0257 µM; in the assay with OVCAR-8 ovarian, 0.0428 µM; with NCI-H226 lung, 0.106 µM; with A549 NSCLC it was 0.0963 µM. The figures for the GI50 in the assay with OVCAR-4 ovarian, with IGROV1 ovarian and in the assay with SK-OV-3 ovarian were 0.021 µM, 0.0251 µM and 0.12 µM, respectively. Moreover, the TGI in the assay with OVCAR-3 ovarian is 0.0903 µM; in the assay on NCI-H460 lung, 0.904 µM; in the assay with NCI-H23 lung, 0.133 µM; with OVCAR-8 ovarian it was above 100 µM; in the assay with NCI-H226 lung it was 0.369 µM; in the assay with A549 NSCLC it was above 100 µM. The same compound registered a TGI with SK-OV-3 ovarian above 100 µM.

On to `O=C1NC(c2cccc3ccccc23)Nc2ccc(Cl)cc21` (stereo not drawn), for which the TGI in the assay on OVCAR-3 ovarian is 0.0151 µM and 0.0303 µM; in the assay with NCI-H460 lung, 0.279 µM; with NCI-H23 lung it was 14.9 µM; in the assay with OVCAR-8 ovarian, 11.4 µM; in the assay on A549 NSCLC, above 100 µM; in the assay on IGROV1 ovarian it was 32.9 µM. Besides, the GI50 in the assay with NCI-H23 lung was 0.011 µM.

`COc1ccc(/C=C/C(=O)C(=O)/C=C/c2ccc(OC)c(OC)c2)cc1OC`: the GI50 was 2.84 µM in the assay on OVCAR-3 ovarian; 0.389 µM with RPMI-8226 leukemia; 3.06 µM in the assay on NCI-H460 lung; 2.99 µM with NCI-H23 lung; 2.97 µM with OVCAR-8 ovarian; above 100 µM in the assay with A549 NSCLC. Besides, the GI50 in the assay on OVCAR-4 ovarian was 4.07 µM; in the assay on SK-OV-3 ovarian, 36.4 µM. Further, the TGI was 9.9 µM with OVCAR-3 ovarian; 2.33 µM with RPMI-8226 leukemia; 11.2 µM in the assay on NCI-H460 lung; above 100 µM in the assay on NCI-H23 lung; above 100 µM in the assay with OVCAR-8 ovarian; above 100 µM in the assay with A549 NSCLC. Further, the TGI in the assay with OVCAR-4 ovarian and in the assay on SK-OV-3 ovarian was above 100 µM each time.
